The results in this text go back to US5225438A, “Aryl derivatives” (Imperial Chemical Industries PLC, priority 1990, dated 1993).

In test [1] the target is T1, 5-LO (Homo sapiens, UniProt P09917).
T1 construct: incubating a test compound with heparinised human blood, prior to challenge with the calcium ionophore A23187; endogenous in cells; host or cells: blood cells in heparinised human whole blood
T1 sequence (P09917 1-674): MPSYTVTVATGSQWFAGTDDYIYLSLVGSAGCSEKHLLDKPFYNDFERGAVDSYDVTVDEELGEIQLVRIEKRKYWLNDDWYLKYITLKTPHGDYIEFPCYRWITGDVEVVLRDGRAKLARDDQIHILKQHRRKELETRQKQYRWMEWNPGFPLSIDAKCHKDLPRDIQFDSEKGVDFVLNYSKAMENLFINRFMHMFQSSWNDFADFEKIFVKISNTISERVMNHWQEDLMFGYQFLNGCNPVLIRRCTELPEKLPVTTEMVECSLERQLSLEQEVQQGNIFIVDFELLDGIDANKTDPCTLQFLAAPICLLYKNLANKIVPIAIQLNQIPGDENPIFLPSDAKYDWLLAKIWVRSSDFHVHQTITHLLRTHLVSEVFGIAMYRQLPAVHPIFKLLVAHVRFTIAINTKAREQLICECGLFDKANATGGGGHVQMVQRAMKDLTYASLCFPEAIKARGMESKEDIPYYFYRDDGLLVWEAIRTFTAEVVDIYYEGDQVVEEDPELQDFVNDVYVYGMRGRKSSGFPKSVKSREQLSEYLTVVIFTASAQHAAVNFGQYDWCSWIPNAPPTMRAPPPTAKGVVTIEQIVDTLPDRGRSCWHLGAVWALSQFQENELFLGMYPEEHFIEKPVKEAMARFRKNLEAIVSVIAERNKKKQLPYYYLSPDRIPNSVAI
Briefly: Test a) in vitro human blood challenged with calcium ionophore A23187, LTB4 radioimmunoassay. Format: cell-based. As to conditions: heparinised human blood. How it is done:
a) An in vitro assay system involving incubating a test compound with heparinised human blood, prior to challenge with the calcium ionophore A23187 and then indirectly measuring the inhibitory effects on 5-LO by assaying the amount of LTB4 using specific radioimmunoassays described by Carey and Forder (Prostaglandins, Leukotrienes Med., 1986, 22, 57; Prostaglandins, 1984, 28, 666; Brit. J. Pharmacol., 1985, 84, 34P) which involves the use of a protein-LTB4 conjugate produced using the procedure of Young et alia (Prostaglandins, 1983, 26(4), 605-613). The effects of a test compound on the enzyme cyclooxygenase (which is involved in the alternative metabolic pathway for arachidonic acid and gives rise to prostaglandins, thromboxanes and related metabolites) may be measured at the same time using the specific radioimmunoassay for thromboxane B2 (TxB2) described by Carey and Forder (see above). This test provides an indication of the effects of a test compound against 5-LO and also cyclooxygenase in the presence of blood cells and proteins. It permits the selectivity of the inhibitory effect on 5-LO or cyclooxygenase to be assessed.

The target in test [2] is T2, 5-LO (Rattus norvegicus, UniProt P12527).
T2 construct: liberation of LTB4 induced by zymosan within an air pouch generated within the subcutaneous tissue of the back of male rats; from tissue; host or cells: live male rats, zymosan-inflamed subcutaneous air pouch (endogenous enzyme)
T2 sequence (P12527 1-673): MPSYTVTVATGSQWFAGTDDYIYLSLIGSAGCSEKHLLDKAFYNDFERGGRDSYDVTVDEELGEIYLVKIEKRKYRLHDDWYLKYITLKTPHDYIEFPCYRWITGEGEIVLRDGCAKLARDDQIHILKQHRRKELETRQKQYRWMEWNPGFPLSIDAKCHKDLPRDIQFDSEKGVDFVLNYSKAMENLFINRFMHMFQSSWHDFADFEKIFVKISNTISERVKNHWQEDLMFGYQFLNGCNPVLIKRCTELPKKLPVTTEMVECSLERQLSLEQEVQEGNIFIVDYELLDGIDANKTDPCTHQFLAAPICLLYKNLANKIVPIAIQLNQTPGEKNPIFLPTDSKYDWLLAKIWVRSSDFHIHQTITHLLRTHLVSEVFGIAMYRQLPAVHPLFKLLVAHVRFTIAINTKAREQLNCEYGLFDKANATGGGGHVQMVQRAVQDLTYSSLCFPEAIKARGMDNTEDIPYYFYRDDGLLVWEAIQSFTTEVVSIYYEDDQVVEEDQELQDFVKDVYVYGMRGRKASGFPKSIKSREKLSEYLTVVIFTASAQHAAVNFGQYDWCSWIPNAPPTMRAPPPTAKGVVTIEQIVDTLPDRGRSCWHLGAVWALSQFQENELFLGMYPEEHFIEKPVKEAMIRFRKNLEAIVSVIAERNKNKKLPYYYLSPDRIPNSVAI
Put plainly: Test c) in vivo zymosan-induced liberation of LTB4 within an air pouch of male rats. As to conditions: 3 h; test c), oral. How it is done:
c) An in vivo system involving measuring the effects of a test compound administered orally against the liberation of LTB4 induced by zymosan within an air pouch generated within the subcutaneous tissue of the back of male rats. The rats are anaesthetised and air pouches are formed by the injection of sterile air (20 ml). A further injection of air (10 ml) is similarly given after 3 days. At 6 days after the initial air injection the test compound is administered (usually orally as the suspension produced when a solution of the test compound in dimethylsulphoxide is added to hydroxypropylmethylcellulose), followed by the intrapouch injection of zymosan (1 ml of a 1% suspension in physiological saline). After 3 hours the rats are killed, the air pouches are lavaged with physiological saline, and the specific radioimmunoassay described above is used to assay LTB4 in the washings. This test provides an indication of inhibitory effects against 5-LO in an inflammatory milieu.

Usually IC50 stands for the midpoint of a concentration-inhibition curve. A word on the ED50: it is the midpoint of the dose-response relation. As for `COC1(c2cc(F)cc(Sc3ccc(C(F)(F)c4ccc(F)cc4)cc3)c2)CCOCC1` [4-[5-fluoro-3-(4-(4-fluoro-alpha,alpha-difluorobenzyl)phenylthio)phenyl]-4-methoxytetrahydropyran], the IC50 at 5-LO [1] was 140 nM. Besides, the ED50 at 5-LO [2] was determined as 1 mg/kg.

On to `COC1(c2cccc(Sc3ccc(Cc4ccc(F)cc4)cc3)c2)CCOCC1` [4-[3-(4-(4-fluorobenzyl)phenylthio)phenyl]-4-methoxytetrahydropyran], for which the IC50 on 5-LO [1] was found to be 40 nM. In addition, on 5-LO [2], the ED50 came out at 2 mg/kg.
